Structures can show the parent of a compound that is named as a salt.
What follows are compounds tested against T1, TLR7/NFKb HEK cells (Homo sapiens, UniProt Q9NYK1) (assay: HEK Cell Assay (TLR7/NFKb reporter, Steady-Glo luciferase readout)). Conditions: 30 min compound preincubation, then R*48 agonist for 5 hours, read-out: Potency.
T1 construct: expressed in transfected cells; host or cells: HEK cells (TLR7/NFKb reporter line)
T1 sequence (Q9NYK1 27-1049): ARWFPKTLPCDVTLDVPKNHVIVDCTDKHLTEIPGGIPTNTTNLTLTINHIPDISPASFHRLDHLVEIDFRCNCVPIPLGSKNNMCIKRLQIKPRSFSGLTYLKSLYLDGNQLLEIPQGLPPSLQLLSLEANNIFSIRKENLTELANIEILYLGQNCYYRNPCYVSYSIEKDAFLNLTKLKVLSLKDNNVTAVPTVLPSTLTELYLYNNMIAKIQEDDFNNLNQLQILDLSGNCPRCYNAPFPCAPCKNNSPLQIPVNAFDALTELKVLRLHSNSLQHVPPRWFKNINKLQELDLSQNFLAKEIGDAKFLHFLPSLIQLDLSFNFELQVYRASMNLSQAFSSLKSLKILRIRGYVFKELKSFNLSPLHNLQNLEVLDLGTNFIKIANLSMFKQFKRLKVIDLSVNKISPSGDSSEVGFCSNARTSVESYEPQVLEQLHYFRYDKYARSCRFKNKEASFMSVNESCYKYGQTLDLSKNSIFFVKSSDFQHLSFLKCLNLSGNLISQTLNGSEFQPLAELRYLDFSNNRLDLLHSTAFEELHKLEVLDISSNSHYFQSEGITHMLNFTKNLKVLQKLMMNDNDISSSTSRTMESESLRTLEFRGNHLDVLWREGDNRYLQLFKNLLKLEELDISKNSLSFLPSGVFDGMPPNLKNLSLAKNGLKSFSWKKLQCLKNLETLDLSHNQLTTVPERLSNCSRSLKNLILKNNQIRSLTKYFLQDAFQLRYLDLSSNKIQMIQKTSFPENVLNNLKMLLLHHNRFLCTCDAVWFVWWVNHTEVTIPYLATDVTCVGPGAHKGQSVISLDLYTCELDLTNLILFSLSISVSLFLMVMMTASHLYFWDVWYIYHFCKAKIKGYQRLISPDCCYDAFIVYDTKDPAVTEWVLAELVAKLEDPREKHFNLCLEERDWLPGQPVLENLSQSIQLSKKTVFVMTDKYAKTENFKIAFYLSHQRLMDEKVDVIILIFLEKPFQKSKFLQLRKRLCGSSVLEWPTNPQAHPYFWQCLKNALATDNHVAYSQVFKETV
Assay type: cell-based
In short: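 Steady-Glo luminescence after 5 h stimulation with R*48 agonist, following 30 min compound preincubation. Assay run in HEK cells carrying a TLR7/NFKb luciferase reporter, plated at 5000 cells/well and grown 24 h at 37° C (10% CO2) before treatment.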

IC50 [nM] | Structure (SMILES)
1000 to 10000 | O=C(NCCN1CCCCC1)C1CCN(c2ccnc3nccnc23)CC1 [Compound 373, 1-Pyrido[2,3-b]pyrazin-8-yl-piperidine-4-carboxylic acid (2-piperidin-1-yl-ethyl)-amide]
1000 to 10000 | CC(C)(O)CC(=O)N[C@@H]1C[C@H](C(F)(F)F)CN(c2ccc(C#N)c3ncccc23)C1 (racemic) [Compound 481]
< 1000 | N#Cc1ccc(N2CC(N)CC(C(F)(F)F)C2)c2cccnc12 (single isomer, unassigned) [Compound 73]
> 10000 | CC(C(=O)NC1CN(c2ccc(C#N)c3nccnc23)CC(F)(F)C1)N1CCOCC1 (stereo not shown) [Compound 509, N-[1-(8-Cyano-quinoxalin-5-yl)-5,5-difluoro-piperidin-3-yl]-2-morpholin-4-yl-propionamide]
1000 to 10000 | O=C(CN1CCCCC1)NCC1CCN(c2ccc(C(F)(F)F)c3ncccc23)CC1 [Compound 448, 2-Piperidin-1-yl-N-[1-(8-trifluoromethyl-quinolin-5-yl)-piperidin-4-ylmethyl]-acetamide]
< 1000 | CN1CCC(CNC(=O)C2CN(c3ccc(C#N)c4ncccc34)CC(F)(F)C2)CC1 (single isomer, unassigned) [Compound 546]
< 1000 | C[C@H]1C[C@@H](NC(=O)[C@H](N)CO)CN(c2ccc(C#N)c3nccnc23)C1 [Compound 106, (2R)-2-amino-N-[(3R,5S)-1-(8-cyanoquinoxalin-5-yl)-5-methylpiperidin-3-yl]-3-hydroxypropanamide]
< 1000 | CC(C)(C)NCC(=O)NCC1CCN(c2ccc(C#N)c3ncccc23)CC1 [Compound 413, 2-tert-Butylamino-N-[1-(8-cyano-quinolin-5-yl)-piperidin-4-ylmethyl]-acetamide]
< 1000 | O=C(NCCN1CCCCC1)C1CCN(c2ccc(C(F)(F)F)c3ncccc23)CC1 [Compound 441, 1-(8-Trifluoromethyl-quinolin-5-yl)-piperidine-4-carboxylic Acid (2-piperidin-1-yl-ethyl)-amide]
< 1000 | C[C@H]1C[C@@H](NC(=O)CN2CC(N)C2)CN(c2ccc(C(F)(F)F)c3nccnc23)C1 [Compound 361, 2-(3-aminoazetidin-1-yl)-N-((3R,5S)-5-methyl-1-(8-(trifluoromethyl)quinoxalin-5-yl)piperidin-3-yl)acetamide]
< 1000 | N[C@H]1C[C@@H](C2CC2)CN(c2ccc(C(F)(F)F)c3nccnc23)C1 (relative stereo) [Compound 330, cis-5-cyclopropyl-1-[8-(trifluoromethyl)quinoxalin-5-yl]piperidin-3-amine]
< 1000 | C[C@H]1C[C@@H](N)CN(c2ccc(Cl)c3ncccc23)C1 [Compound 78, (3R,5S)-1-(8-chloroquinolin-5-yl)-5-methylpiperidin-3-amine]
< 1000 | COCCN[C@@H]1C[C@H](C)CN(c2ccc(C(F)(F)F)c3ncccc23)C1 [Compound 196, (3R,5S)—N-(2-methoxyethyl)-5-methyl-1-[8-(trifluoromethyl)quinolin-5-yl]piperidin-3-amine]
> 10000 | C[C@H]1C[C@@H](NC(=O)C(N)C(F)(F)F)CN(c2ccnc3nccnc23)C1 (single isomer, unassigned) [Compound 114, hydrochloride]
< 1000 | NC1CN(c2ccc(C(F)(F)F)c3ncccc23)CC(F)(F)C1 (single isomer, unassigned) [Compound 527]
1000 to 10000 | N#Cc1ccc(N2CC(N)CC(C3CC3)C2)c2nccnc12 (single isomer, unassigned) [Compound 69, 8-(3-amino-5-cyclopropylpiperidin-1-yl)quinoxaline-5-carbonitrile]

IC50 [nM] | Structure (SMILES)
< 1000 | C[C@H]1C[C@@H](NC2CCN(C)C2=O)CN(c2ccc(C#N)c3nccnc23)C1 (single isomer, unassigned) [Compound 125]
< 1000 | C[C@H]1C[C@@H](NC(=O)CN2CCC(F)(F)CC2)CN(c2ccc(C(F)(F)F)c3ncccc23)C1 [Compound 350, 2-(4,4-difluoropiperidin-1-yl)-N-[(3R,5S)-5-methyl-1-[8-(trifluoromethyl)quinolin-5-yl]piperidin-3-yl]acetamide]
> 10000 | COC(C)C(=O)N[C@@H]1C[C@H](C)CN(c2ccnc3nccnc23)C1 (single isomer, unassigned) [Compound 161]
< 1000 | C[C@H]1C[C@@H](NC(=O)CC2CCN(CC(F)F)CC2)CN(c2ccc(C(F)(F)F)c3ncccc23)C1 [Compound 246, 2-[1-(2,2-difluoroethyl)piperidin-4-yl]-N-[(3R,5S)-5-methyl-1-[8-(trifluoromethyl)quinolin-5-yl]piperidin-3-yl]acetamide]
1000 to 10000 | C[C@H]1C[C@@H](NC(=O)C2(O)CC2)CN(c2ccc(C(F)(F)F)c3nccnc23)C1 [Compound 251, 1-hydroxy-N-[(3R,5S)-5-methyl-1-[8-(trifluoromethyl)quinoxalin-5-yl]piperidin-3-yl]cyclopropane-1-carboxamide]
< 1000 | C[C@H]1C[C@@H](NC2CCC(O)CC2)CN(c2ccc(C#N)c3nccnc23)C1 (single isomer, unassigned) [Compound 136]
1000 to 10000 | CN1CCC(NC2CC(C(F)(F)F)CN(c3ccc(C#N)c4nccnc34)C2)C1=O (single isomer, unassigned) [Compound 225]
< 1000 | Cc1cc(F)c(N2C[C@@H](C)C[C@@H](N)C2)c2cccnc12 [Compound 489, (3R,5S)-1-(6-Fluoro-8-methyl-quinolin-5-yl)-5-methyl-piperidin-3-ylamine]
1000 to 10000 | N#Cc1ccc(N2C[C@@H](NC(=O)CCC(N)=O)C[C@@H](C(F)(F)F)C2)c2cccnc12 (relative stereo) [Compound 480, cis-N-[1-(8-Cyano-quinolin-5-yl)-5-trifluoromethyl-piperidin-3-yl]-succinamide]
> 10000 | C[C@H]1C[C@@H](NC2CCN(C)C2=O)CN(c2ccnc3nccnc23)C1 (stereo partly drawn) [Compound 126, 1-methyl-3-[[(3R,5S)-5-methyl-1-[pyrido[2,3-b]pyrazin-8-yl]piperidin-3-yl]amino]pyrrolidin-2-one]
> 10000 | Cc1ncc(N2C[C@@H](C)C[C@@H](NC(=O)CCC(=O)O)C2)c2cccnc12 [Compound 567, N-[(3R,5S)-5-Methyl-1-(8-methyl-[1,7]naphthyridin-5-yl)-piperidin-3-yl]-succinamic acid]
1000 to 10000 | COc1ccc(N2C[C@@H](C)C[C@@H](NC(=O)C(O)C(C)C)C2)c2nccnc12 (stereo in doubt) [Compound 201, (2R)-2-hydroxy-N-[(3R,5S)-1-(8-methoxyquinoxalin-5-yl)-5 methylpiperidin-3-yl]-3-methylbutanamide]
1000 to 10000 | CCN(C)[C@@H](C)C(=O)N[C@@H]1C[C@H](C)CN(c2ccnc3nccnc23)C1 [Compound 101, (2S)-2-[ethyl(methyl)amino]-N-[(3R,5S)-5-methyl-1-[pyrido[2,3-b]pyrazin-8-yl]piperidin-3-yl]propanamide]
> 10000 | C[C@H]1C[C@@H](NC(=O)C2CC(F)(F)C2)CN(c2ccc(C(F)F)c3ncccc23)C1 [Compound 317, N-[(3R,5S)-1-[8-(difluoromethyl)quinolin-5-yl]-5-methylpiperidin-3-yl]-3,3-difluorocyclobutane-1-carboxamide]
< 1000 | C[C@@H]1C[C@H](O)CN(c2ccc(C(F)(F)F)c3ncccc23)C1 (racemic) [Compound 461, cis-5-Methyl-1-(8-trifluoromethyl-quinolin-5-yl)-piperidin-3-ol]
